Measured values as given in patent publication US7261876B2, “Multivalent constructs for therapeutic and diagnostic applications” (Bracco International BV, priority 2002, dated 2007).
Entries after “also recorded” stand apart in the source; their conditions may differ.

What was measured:
KDR/VEGF complex = molecular target: T1, KDR/VEGF complex (Homo sapiens, UniProt P35968); assay: Cell based assay for binding of KDR/VEGF complex binders (peptide-125I-streptavidin complexes); details: in the presence of VEGF
T1 construct: Both PCR products were digested with Not1 and ligated together to create the full-length receptor; V5-His (encoded by the vector); expressed in transfected cells; host or cells: 293H cells, transiently transfected; VEGF added exogenously
From the text: Furthermore, these peptides, as well as other peptides which bind KDR/VEGF complex may advantageously be included in heteromultimers of the invention.

[1] = system: VEGF-induced migration of HUVECs; assay: HUVEC migration/invasion assay; format: cell-based, human
[2] = molecular target: T2, KDR-transfected 293H cells (Homo sapiens, UniProt P35968); assay: Binding of peptide-conjugated microbubbles to KDR-transfected cells; format: cell-based; details: Experiment A; free peptide 100 μM to 3 nM
T2 construct: Both PCR products were digested with Not1 and ligated together to create the full-length receptor; V5-His (encoded by the vector); expressed in transfected cells; host or cells: 293H cells (Invitrogen cat. # 11631), transient lipofectamine 2000 transfection
Description: 293H cells were transfected with KDR cDNA. […] Competition was also performed using a non-binding control peptide as a competing compound.
293H cells were transfected with KDR cDNA.
D23 (a dimeric construct of P6- and P12-derived sequences) was conjugated with a preparation of microbubbles as above described, according to the following methodology. The thioacetylated peptide ([…]) was dissolved in 20 μl DMSO and then diluted in 1 ml of Phosphate Buffer Saline (PBS). This solution was mixed to the N-MPB-functionalized microbubbles dispersed in 18 ml of PBS-EDTA 10 mM, pH 7.5 and 2 ml of deacetylation solution (50 mM sodium phosphate, 25 mM EDTA, 0.5 M hydroxylamine.HCl, pH 7.5) was added. The headspace was filled with C4F10/Air (50/50) and the mixture was incubated for 2.5 hours at room temperature under gentle agitation (rotating wheel), in the dark. Conjugated bubbles were washed by centrifugation. Similarly, the monomer peptides making up D23 were separately conjugated to two different microbubble preparations according to the methodology described above.

Soluble KDR receptor = molecular target: T3, Soluble KDR receptor (Homo sapiens, UniProt P35968); assay: Surface plasmon resonance (Biacore 3000) of P9/P10 heterodimers; format: binding
T3 construct: Soluble KDR receptor was cross-linked to the dextran surface of a CM5 sensor chip

KDR = molecular target: T4, KDR (Homo sapiens, UniProt P35968); assay: VEGF-induced KDR receptor activation (phosphorylation) assay in HUVECs; format: cell-based; details: 10 μM
T4 construct: host or cells: HUVEC
From the text: Human umbilical vein endothelial cells (HUVECs) (Biowhittaker Cat No. CC-2519) were obtained frozen on dry ice and stored in liquid nitrogen until thawing. These cells were thawed, passaged, and maintained as described by the manufacturer in EGM-MV medium (Biowhittaker Cat No. CC-3125). Cells seeded into 100 mm dishes were allowed to become confluent, then cultured overnight in basal EBM medium lacking serum (Biowhittaker Cat No. CC-3121). The next morning, the medium in the dishes was replaced with 10 mL fresh EBM medium at 37° C. containing either no additive (negative control), 5 ng/mL VEGF (Calbiochem Cat No. 676472 or Peprotech Cat No. 100-20) (positive control), or 5 ng/mL VEGF plus the indicated concentration of the KDR-binding peptide (prepared as described above). In some cases, a neutralizing anti-KDR antibody (Cat No. AF357, R&D Systems) was used as a positive control inhibitor of activation. In such cases, the antibody was pre-incubated with the test cells for 30 min at 37° C. prior to the addition of fresh medium containing both VEGF and the antibody. After incubating the dishes 5 min in a 37° C. tissue culture incubator they were washed three times with ice-cold Dulbecco's phosphate buffered saline (D-PBS) containing calcium and magnesium and placed on ice without removing the last 10 mL of D-PBS. The first dish of a set was drained and 0.5 mL of Triton lysis buffer was added (20 mM Tris base pH 8.0, 137 mM NaCl, 10% glycerol, 1% Triton X-100, 2 mM EDTA (ethylenediaminetetraacetic acid), 1 mM PMSF (phenylmethylsulfonylfluoride), 1 mM sodium orthovanadate, 100 mM NaF, 50 mM sodium pyrophosphate, 10 μg/mL leupeptin, 10 μg/mL aprotinin). The cells were quickly scraped into the lysis buffer using a cell scraper (Falcon, Cat No. 353087), dispersed by pipeting up and down briefly, and the resulting lysate was transferred to the second drained dish of the pair. Another 0.5 mL of lysis buffer was used to rinse out the first dish then transferred to the second dish, which was then also scraped and dispersed. The pooled lysate from the two dishes was transferred to a 1.5 mL Eppindorf tube. The above procedure was repeated for each of the controls and test samples (KDR-binding peptides), one at a time. The lysates were stored on ice until all the samples had been processed. At this point samples were either stored at −70° C. or processed to the end of the assay without interruption.
The lysates, either freshly prepared or frozen and thawed, were precleared by adding 20 μL of protein A-sepharose beads (Sigma 3391, preswollen in D-PBS), washed three times with a large excess of D-PBS, reconstituted with 6 mL D-PBS to generate a 50% slurry) and rocked at 4° C. for 30 min. The beads were pelleted by centrifugation for 2 min in a Picofuge (Stratgene, Cat No. 400550) at 2000×g and the supernatants transferred to new 1.5 mL tubes. 20 μg of anti-Flk-1 antibody (Santa Cruz Biotechnology, Cat No. sc-504) was added to each tube, and the tubes were incubated overnight (16–18 h) at 4° C. on a rotator to immunoprecipitate KDR. The next day 40 μL of protein A-sepharose beads were added to the tubes, which were then incubated at 4° C. for 1 h on a rotator. The beads in each tube were subsequently washed three times by centrifuging for 2 min in a Picofuge, discarding the supernatant, and dispersing the beads in 1 mL freshly added TBST buffer (20 mM Tris base pH 7.5, 137 mM NaCl, and 0.1% Tween 20). After centrifuging and removing the liquid from the last wash, 40 μL of Laemmli SDS-PAGE sample buffer (Bio-Rad, Cat No. 161-0737) was added to each tube and the tubes were capped and boiled for 5 min. After cooling, the beads in each tube were pelleted by centrifuging and the supernatants containing the immunoprecipitated KDR were transferred to new tubes and used immediately or frozen and stored at −70° C. for later analysis.
Detection of phosphorylated KDR as well as total KDR in the immunoprecipitates was carried out by immunoblot analysis. […]

KDR transfected cells = molecular target: T5, KDR transfected cells (Homo sapiens, UniProt P35968); assay: Competition of free peptides with P5-XB/avidin HRP complex (Experiment E); format: binding; details: P5-XB/avidin HRP 3.33 nM; free peptide 0–[…]
T5 construct: Both PCR products were digested with Not1 and ligated together to create the full-length receptor; V5-His (encoded by the vector); expressed in transfected cells; host or cells: 293H cells (Invitrogen cat. # 11631), transient lipofectamine 2000 transfection
From the text: If the peptides bind to the same site on KDR, they would likely compete with each other for binding to KDR, whereas if the peptides bind to different sites, there should be no competition between the peptides for binding to KDR.

[3] = molecular target: T6, KDR-expressing 293H cells (Homo sapiens, UniProt P35968); assay: Bead-binding assay, peptide-conjugated fluorescent beads; format: cell-based; details: Neutravidin-coated beads, 40% FBS
T6 construct: Both PCR products were digested with Not1 and ligated together to create the full-length receptor; V5-His (encoded by the vector); expressed in transfected cells; host or cells: 293H cells (Invitrogen cat. # 11631), transient lipofectamine 2000 transfection
Description: As a positive control, biotinylated anti-KDR antibody was incubated with the Neutravidin-coated beads as above, except that 0.03 mg of the biotinylated antibody preparation in PBS (Gibco 14190-136) was used instead of peptide solution. Beads can be stored at 4° C. until needed for up to 1 week.
293H cells were transfected using the protocol described in Example 6. Transfection was done in black/clear 96-well plates (Becton Dickinson, cat. # 354640). The cells in one half of the plate (48 wells) were mock-transfected (with no DNA) and those in the other half of the plate were transfected with KDR cDNA. The cells were 80–90% confluent at the time of transfection and completely confluent the next day, at the time of the assay; otherwise the assay was aborted.
From the above bead preparations, 0.12 mL was spun for 10 minutes at 2000 rpm in a microcentrifuge at room temperature. The supernatant was removed and 0.06 mL of MES pH 6.0 was added. Each bead solution was then vortexed and sonicated in a water bath 15 min. To 1.47 mL of DMEM, high glucose (GIBCO 11965-084) with 1×MEM Non-Essential Amino Acids Solution (NEAA) (GIBCO 11140-050) and 40% FBS (Hyclone SH30070.02) 0.03 mL of the sonicated bead preparations was added. 96-well plates seeded with 293H cells which have been mock-transfected in columns 1 to 6, and KDR-transfected in columns 7 to 12 (as described above), were drained and washed once with DMEM, high glucose with 1×NEAA and 40% FBS. To each well was added 0.1 mL of bead solution, six wells per bead preparation. […] After draining, 0.1 mL of PBS was added per well. The plates were then read on a Packard FluoroCount fluorometer at excitation 550 nm/emission 620 nm. Unconjugated Neutravidin beads were used as a negative control while beads conjugated with a biotinylated anti-KDR antibody were used as the positive control for the assay.
To calculate the number of beads bound per well, a standard curve with increasing numbers of the same fluorescent beads was included in each assay plate. The standard curve was used to calculate the number of beads bound per well based on the fluorescence intensity of each well.

[4] = molecular target: T7, KDR expressed by transfected 293H cells (Homo sapiens, UniProt P35968); assay: Competition with 125I-labeled VEGF for binding to KDR-transfected 293H cells
T7 construct: Both PCR products were digested with Not1 and ligated together to create the full-length receptor; V5-His (encoded by the vector); expressed in transfected cells; host or cells: 293H cells (Invitrogen cat. # 11631), transient lipofectamine 2000 transfection
T7 sequence (P35968 20-1356): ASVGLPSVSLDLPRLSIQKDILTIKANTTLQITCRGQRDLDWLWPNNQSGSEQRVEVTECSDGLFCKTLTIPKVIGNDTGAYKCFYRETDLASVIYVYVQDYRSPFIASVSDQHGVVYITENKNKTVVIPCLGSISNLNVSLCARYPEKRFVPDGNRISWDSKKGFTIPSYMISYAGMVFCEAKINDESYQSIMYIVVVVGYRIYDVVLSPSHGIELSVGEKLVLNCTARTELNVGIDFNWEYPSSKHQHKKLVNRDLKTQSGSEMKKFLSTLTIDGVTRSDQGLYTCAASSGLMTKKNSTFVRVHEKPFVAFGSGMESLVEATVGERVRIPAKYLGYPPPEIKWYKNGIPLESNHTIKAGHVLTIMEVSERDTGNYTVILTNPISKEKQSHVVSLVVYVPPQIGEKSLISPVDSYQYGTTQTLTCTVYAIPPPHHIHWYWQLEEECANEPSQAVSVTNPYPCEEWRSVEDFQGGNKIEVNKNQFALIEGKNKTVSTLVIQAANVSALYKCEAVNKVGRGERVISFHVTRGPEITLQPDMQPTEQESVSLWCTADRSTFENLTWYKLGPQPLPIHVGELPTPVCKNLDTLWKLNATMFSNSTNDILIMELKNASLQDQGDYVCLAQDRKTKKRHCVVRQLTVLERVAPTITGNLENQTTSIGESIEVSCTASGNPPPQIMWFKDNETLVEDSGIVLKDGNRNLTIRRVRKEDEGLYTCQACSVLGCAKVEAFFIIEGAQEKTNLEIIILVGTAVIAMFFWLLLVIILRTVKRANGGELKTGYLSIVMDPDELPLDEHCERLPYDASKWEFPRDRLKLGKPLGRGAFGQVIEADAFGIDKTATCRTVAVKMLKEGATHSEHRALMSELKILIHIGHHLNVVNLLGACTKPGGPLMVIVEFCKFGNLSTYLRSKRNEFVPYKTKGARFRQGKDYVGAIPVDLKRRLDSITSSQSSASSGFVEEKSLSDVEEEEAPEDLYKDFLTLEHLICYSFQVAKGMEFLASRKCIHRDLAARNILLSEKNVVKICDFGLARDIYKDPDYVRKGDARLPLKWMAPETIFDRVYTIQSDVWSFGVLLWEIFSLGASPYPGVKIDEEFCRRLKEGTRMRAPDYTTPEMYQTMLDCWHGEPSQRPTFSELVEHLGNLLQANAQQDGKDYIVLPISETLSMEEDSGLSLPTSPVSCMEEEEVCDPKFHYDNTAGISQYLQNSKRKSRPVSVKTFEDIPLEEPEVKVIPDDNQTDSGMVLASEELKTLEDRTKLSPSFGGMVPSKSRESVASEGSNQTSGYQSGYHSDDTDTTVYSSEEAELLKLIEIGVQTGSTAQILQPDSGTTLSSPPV
Description: Once prepared, the solutions were kept on ice until ready to use.
Cells were used 24 h after transfection, and to prepare the cells for the assay, they were washed 3 times with room temperature M199 medium and placed in the refrigerator. […] After incubating at 4° C. for 2 h, the plates were washed 5 times with cold binding buffer, gently blotted dry and checked under a microscope for cell loss. 100 μL of solubilizing solution (2% Triton X-100, 10% Glycerol, 0.1% BSA) was added to each well and the plates were incubated at room temperature for 30 minutes. The solubilizing solution in each well was mixed by pipeting up and down, and transferred to 1.2 mL tubes. Each well was washed twice with 100 μL of solubilizing solution and the washes were added to the corresponding 1.2 mL tube.
After washing the cells, the bound radioactivity was quantitated on a gamma counter.

T3 sequence (P35968 20-764 limits assumed): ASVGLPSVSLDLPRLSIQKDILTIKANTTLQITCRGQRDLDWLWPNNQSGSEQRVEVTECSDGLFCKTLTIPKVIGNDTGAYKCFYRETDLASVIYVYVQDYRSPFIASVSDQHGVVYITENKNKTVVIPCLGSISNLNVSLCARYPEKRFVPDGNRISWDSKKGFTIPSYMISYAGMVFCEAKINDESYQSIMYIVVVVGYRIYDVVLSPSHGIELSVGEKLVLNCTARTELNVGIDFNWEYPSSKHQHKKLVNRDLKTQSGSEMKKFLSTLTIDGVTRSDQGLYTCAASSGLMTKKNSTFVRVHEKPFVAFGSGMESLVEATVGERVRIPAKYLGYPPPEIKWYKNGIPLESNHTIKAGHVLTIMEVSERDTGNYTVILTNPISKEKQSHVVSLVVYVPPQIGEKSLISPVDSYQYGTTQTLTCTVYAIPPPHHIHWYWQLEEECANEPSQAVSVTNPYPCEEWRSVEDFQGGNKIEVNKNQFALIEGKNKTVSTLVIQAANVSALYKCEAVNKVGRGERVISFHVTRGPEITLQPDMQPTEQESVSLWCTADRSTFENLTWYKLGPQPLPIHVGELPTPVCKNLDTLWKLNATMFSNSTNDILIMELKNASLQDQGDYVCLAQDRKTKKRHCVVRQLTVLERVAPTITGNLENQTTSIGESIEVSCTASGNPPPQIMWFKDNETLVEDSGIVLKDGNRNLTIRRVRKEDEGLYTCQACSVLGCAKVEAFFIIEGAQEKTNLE
T6 sequence (P35968 20-1356): as the sequence (P35968 20-1356) above
T1 sequence (P35968 20-1356): as above
T1 sequence (P15692 27-191 isoform P15692-4 partner): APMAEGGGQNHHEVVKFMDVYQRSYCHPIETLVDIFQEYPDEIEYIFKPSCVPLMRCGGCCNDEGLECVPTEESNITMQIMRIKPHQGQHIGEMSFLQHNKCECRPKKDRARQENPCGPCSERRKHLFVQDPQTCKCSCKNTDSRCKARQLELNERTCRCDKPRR
T5 sequence (P35968 20-1356): as the sequence (P35968 20-1356) above
T4 sequence (P35968 20-1356): as above
T2 sequence (P35968 20-1356): as above

## Ac-AGPGPCKGYMPHQCWYMGTGGGK(Biotin-JJ)-NH2 [P30-XB]
KDR/VEGF complex
  specific binding of peptide-125I-streptavidin complex (KDR-mock): specifically bound to KDR-transfected 293H cells; also recorded: showed specific binding

## CC(C)c1cc(/C=C(\C#N)C(=O)NCCCc2ccccc2)cc(C(C)C)c1O [SU1498, (E)-3-(3,5-Diisopropyl-4-hydroxyphenyl)-2-[(3-phenyl-n-propyl)aminocarbonyl]acrylonitrile]
[1]; 3 micromolar
  VEGF-induced migration blocked: 47%

## AGPTWCEDDWYYCWLFGT [P12]
[2]
  competition of conjugated microbubbles by free peptide: competed off by the corresponding free KDR-specific peptide

## AQAFPRFGGDDYWIQQYLRYTDGG [P10]
Soluble KDR receptor
  kd,1: 0.45 s⁻¹
KDR
  inhibition of KDR activation: clearly able to partially block the VEGF-induced activation of KDR

## CC[C@H](C)[C@H](NC(=O)[C@H](Cc1c[nH]c2ccccc12)NC(=O)[C@H](Cc1ccc(O)cc1)NC(=O)[C@H](CC(=O)O)NC(=O)[C@H](CC(=O)O)NC(=O)CNC(=O)CNC(=O)[C@H](Cc1ccccc1)NC(=O)[C@H](CCCNC(=N)N)NC(=O)[C@@H]1CCCN1C(=O)[C@H](Cc1ccccc1)NC(=O)[C@H](C)NC(=O)[C@H](CCC(N)=O)NC(=O)[C@H](C)NC(C)=O)C(=O)N[C@@H](CCC(N)=O)C(=O)N[C@@H](CCC(N)=O)C(=O)N[C@@H](Cc1ccc(O)cc1)C(=O)N[C@@H](CC(C)C)C(=O)N[C@@H](CCCNC(=N)N)C(=O)N[C@@H](Cc1ccc(O)cc1)C(=O)N[C@H](C(=O)N[C@@H](CC(=O)O)C(=O)NCC(=O)NCC(=O)N[C@@H](CCCCNC(=O)CCOCCOCCOCCOCCNC(=O)CON=C(C)CCC(=O)NCCOCCOCCOCCOCCC(=O)NCCCC[C@H](NC(=O)CNC(=O)CNC(=O)[C@H](CC(=O)O)NC(=O)CNC(=O)[C@H](CC(=O)O)NC(=O)[C@H](CCC(=O)O)NC(=O)[C@H](CCC(=O)O)NC(=O)[C@H](Cc1c[nH]cn1)NC(=O)[C@H](Cc1ccc(O)cc1)NC(=O)[C@H](CC(C)C)NC(=O)[C@@H](NC(=O)[C@@H](NC(=O)[C@@H](NC(=O)[C@H](CCC(=O)O)NC(=O)[C@H](Cc1c[nH]c2ccccc12)NC(=O)[C@H](Cc1ccc(O)cc1)NC(=O)[C@H](C)NC(=O)[C@H](Cc1ccc(O)cc1)NC(=O)CNC(=O)[C@H](CCC(=O)O)NC(=O)[C@@H]1CCCN1C(=O)[C@H](CCC(=O)O)NC(=O)[C@H](CCC(N)=O)NC(=O)[C@H](C)NC(C)=O)C(C)C)[C@@H](C)CC)[C@@H](C)O)C(N)=O)C(N)=O)[C@@H](C)O [Tail-to-tail dimer]
Soluble KDR receptor
  increase in affinity over the individual monomer: greater than 60 fold
  kd,1: 0.00128 s⁻¹
Soluble KDR receptor; pH 7.65, read-out: ka,1
  kon: 115000 M⁻¹ s⁻¹

## Ac-GDSRVC*WEDSWGGEVC*FRYDPGGGK-(Biotin-JJ-)-NH2 [P6-XB]
KDR transfected cells
  competition with P5-XB/avidin HRP solution for binding: do not compete

## Ac-AGPKWC*EEDWYYC*MITGT-GGGK-(Biotin)-NH2 [P5-B]
[3]
  binding of ligand-coated fluorescent beads to KDR-transfected vs mock-transfected cells: did not bind to the KDR-transfected cells significantly more than to mock-transfected cells

## Ac-AGMPWCVEKDHWDCWWWGTGGGK(Biotin-JJ)-NH2 [P31-XB]
KDR/VEGF complex
  specific binding of peptide-125I-streptavidin complex (KDR-mock): Only the complex containing P30-XB showed specific binding

## Ac-GDSRVC*WEDSWGGEVC*FRYDP-GGGK-(Biotin)-NH2 [P6-B]
[3]
  binding of ligand-coated fluorescent beads to KDR-transfected vs mock-transfected cells: showed greater binding to KDR-transfected cells

## Ac-AGYGPCKNMPPWMCWHEGTGGGK(Biotin-JJ)-NH2 [P32-XB]
KDR/VEGF complex
  specific binding of peptide-125I-streptavidin complex (KDR-mock): Only the complex containing P30-XB showed specific binding

## AQEPEGYAYWEVITLYHEEDGDGG [P9]
Soluble KDR receptor
  kd,1: 0.00332 s⁻¹

## Ac-AGPKWC*EEDWYYC*MITGTGGGK-(Biotin-JJ-)-NH2 [P5-XB]
[3]
  binding of ligand-coated fluorescent beads to KDR-transfected vs mock-transfected cells: Specific binding to KDR was detected
[4]; 0.3 μM peptide
  percentage inhibition of 125I-labeled VEGF binding: 24.41±8.43%
[4]; 30 μM peptide
  percentage inhibition of 125I-labeled VEGF binding: 47.95±5.09%
KDR transfected cells
  competition with P5-XB/avidin HRP solution for binding: does compete

## Ac-ERVTTCWPGEYGGVECYSVAY-NH2 (cysteine pairing not given here) [PG-1, reference compound]
[1]; up to 62.5 nM
  VEGF-stimulated migration: had no effect on VEGF-stimulated migration
[4]
  competition with 125I-VEGF for binding to KDR-transfected cells: competed about equally well
